Source: the NIST ThermoML archive (doi:10.1021/acs.jced.6b00517)

Assays:
[1] = Liquid; for mass density: 298.15 K, 101.3 kPa, Vibrating tube method; for vapor or sublimation pressure: Ebulliometric method (Recirculating still)
[2] = refractive index (Na D-line) (dimensionless); conditions: 298.15 K; 101.3 kPa; Liquid; Standard Abbe refractometry
[3] = Boiling temperature at pressure P; conditions: 101.3 kPa; Liquid; Ebulliometric method (Recirculating still)

CCCCO [butan-1-ol]
Conditions	mass density [kg/m3]	refractive index
[1]	805.94	–
[2]	–	1.3971

[1]
Conditions	vapor or sublimation pressure [kPa]
367.03 K	40
381.07 K	70

CCCCOC(=O)OCCCC [dibutyl carbonate]
Conditions	Boiling temperature at pressure P [°C]	mass density [kg/m3]	refractive index
[1]	–	925.17	–
[2]	–	–	1.4115
[3]	204.50	–	–

[1]
Conditions	vapor or sublimation pressure [kPa]
383.16 K	5
403.77 K	10
410.07 K	15
420.73 K	20
427.86 K	25
434.15 K	30
439.03 K	35
443.67 K	40
443.78 K	40
449.33 K	45
453.17 K	50
456.63 K	55
459.47 K	60
461.31 K	65
463.87 K	70
464.01 K	70
465.41 K	75
468.56 K	80
470.27 K	85
472.83 K	90
475.91 K	95
478.02 K	100
478.18 K	100

CO [methanol]
Conditions	Boiling temperature at pressure P [°C]	mass density [kg/m3]	refractive index
[1]	–	786.61	–
[2]	–	–	1.3266
[3]	64.68	–	–

[1]
Conditions	vapor or sublimation pressure [kPa]
315.78 K	40
328.56 K	70
337.33 K	100
